In brackets after ≈: the same amount, converted by molar mass. Read-outs that look alike come from different tables or passages of the source.
Tests used:
[1] = tested on: L. infantum amastigote; design: method as in PMID 29201107; details: cited from earlier work
[2] = tested on: L. infantum promastigotes; test: Antileishmanial activity on promastigotes (luciferase assay); format: cell-based, L. infantum strain MHOM/MA/67/ITMAP-263; details: Leishmania infantum, 72 h, 24 °C, mean of three independent experiments
[3] = tested on: L. infantum axenic amastigotes; test: Antileishmanial activity on axenic amastigotes (luciferase assay); format: cell-based, L. infantum strain MHOM/MA/67/ITMAP-263; details: for IC50 / IC90: Leishmania infantum; for IC50 / Axenic Amastigotes IC50: 48 h, L. infantum axenic amastigotes, 37 °C; for IC90: L. infantum amastigotes, concentration used in the ROS assay; for IC50 when associated with mannitol, compared with IC50 alone: mannitol 50 µM, axenic amastigotes
[4] = tested on: Pyricularia pryzae; details: cited from earlier work
[5] = Cytotoxicity evaluation, MTT assay; format: cell-based; details: mouse, J774A.1 macrophage cells, mean of three independent experiments, read-out: J774A1 CC50
Procedure: After incubation for 24 h, 100 µL of medium with various concentrations of jacoumaric acid, carasolic acid, and appropriate controls (doxorubicin and amphotericin B, purchased from Sigma-Aldrich) were added and the plates were incubated for 72 h at 37 °C and 5% CO2. Each 96-well plate was then examined under a microscope to detect possible precipitate formation before the medium was aspirated from the well. 100 µL of MTT solution (0.5mg/mL in DMEM) was then added to each well. Cells were incubated for 2 h at 37 °C and 5% CO2. Then, the MTT solution was removed and DMSO (100 µL/well) was added to dissolve the resulting formazan crystals. Plates were shaken vigorously (300 rpm) for 5 min. The absorbance was measured at 570 nm with a microplate spectrophotometer (Eon Bio Tek, Winooski, VT, USA). DMSO was used as blank. […] (San Diego, CA, USA). CC50 values represent the mean value calculated from three independent experiments.

[6] = tested on: L. infantum amastigotes; test: Intracellular ROS generation, H2DCFDA assay; format: cell-based; details: axenic amastigotes treated 24 h at IC50 and IC90 concentrations
Procedure: The cells were then centrifuged, washed with PBS, resuspended in PBS, and incubated for 30 min in the dark with 10 µM H2DCFDA at 37 °C. ROS were measured as an increase in fluorescence caused by the conversion of non-fluorescent dye to highly fluorescence […] (excitation wavelength 490 nm, emission wavelength 525 nm) in a fluorescence microplate reader (SAFAS Xenius XM, Monaco, France).

[7] = tested on: five human cancer cell lines (HCT116, CCRFCEM, DU145, Huh7, and A549); design: method as in PMID 28578580; details: read-out: IC50, antitumor activity; cited from earlier work
[8] = tested on: Leishmania; design: method as in PMID 15070160; details: cited from earlier work
[9] = tested on: Leishmania amazonensis; design: method as in PMID 31269109; details: cited from earlier work
[10] = tested on: Leishmania; design: method as in PMID 31571946; details: cited from earlier work

Molecule: CC1(C)CC[C@]2(C(=O)O)CC[C@]3(C)C(=CC[C@@H]4[C@@]5(C)C[C@@H](O)[C@H](O)C(C)(C)[C@@H]5CC[C@]43C)[C@@H]2C1 [maslinic, maslinic acid]
- IC50 on L. infantum amastigote [1]: 0.99 ± 0.09 µg/mL (≈ 2.09 µM)

Molecule: CC1(C)CCC2(C(=O)O)CCC3(C)C(=CCC4C5(C)CC(O)C(O)C(C)(C(=O)O)C5CCC43C)C2C1 (stereo not drawn) [Medicagenic acid (6), Medicagenic acid]
- IC50 [2]: > 50 µg/mL
- IC50 [3]: > 50 µg/mL
- minimum fungicidal concentration (MFC) [4]: 30 µg/mL (≈ 59.7 µM)
- minimum inhibitory concentration (MIC) [4]: 10 µg/mL (≈ 19.9 µM)

Molecule: C[C@H]1[C@H](C)CC[C@]2(C(=O)O)CC[C@]3(C)C(=CC[C@@H]4[C@@]5(C)C[C@@H](O)[C@H](O)C(C)(C)[C@@H]5CC[C@]43C)[C@H]12 [Corosolic acid (1), Corosolic acid (2α-hydroxyursolic acid)]
- IC50 [2]: 18.4 ± 1.2 µg/mL (≈ 39 µM)
- Axenic Amastigotes IC50 [3]: 1.01 ± 0.06 µg/mL
- IC50 [3]: 1.06 µg/mL (≈ 2.24 µM)
- IC90 [3]: 1.43 µg/mL (≈ 3.03 µM)
- IC50 when associated with mannitol, compared with IC50 alone [3]: no significant differences
- CC50 at 72 h [5]: 5.77 ± 0.5 µg/mL (≈ 12.2 µM)
- Production of ROS (H2DCFDA fluorescence) compared to the control [6]: significantly decreased

Molecule: C/C1=C\CC(C)(C)/C=C/CC2(C)Oc3c(C=O)c(O)c(C=O)c(O)c3C(c3ccccc3)C2CC1 (stereo not drawn) [Guajadial B (5), Guajadial B]
- IC50 [2]: > 50 µg/mL
- IC50 [3]: > 50 µg/mL
- IC50 [7]: 150 nM

Molecule: C[C@@H]1[C@H](O)[C@@H](C)/C=C/C=C/C=C/C=C/C=C/C=C/C=C/[C@H](O[C@@H]2O[C@H](C)[C@@H](O)[C@H](N)[C@@H]2O)C[C@@H]2O[C@](O)(C[C@@H](O)C[C@@H](O)[C@H](O)CC[C@@H](O)C[C@@H](O)CC(=O)O[C@H]1C)C[C@H](O)[C@H]2C(=O)O [Amphotericin B, reference compound]
- IC50 [2]: 0.09 ± 0.01 µg/mL (≈ 0.0974 µM)
- IC50 [3]: 0.09 ± 0.04 µg/mL (≈ 0.0974 µM)
- CC50 at 72 h [5]: 5.79 ± 0.65 µg/mL (≈ 6.27 µM)

Molecule: C[C@H]1[C@H](C)CC[C@]2(C(=O)O)CC[C@]3(C)C(=CC[C@@H]4[C@@]5(C)CC[C@H](O)C(C)(C)[C@@H]5CC[C@]43C)[C@H]12 [ursolic acid]
- IC50, antileishmanial [8]: 27 µg/mL (≈ 59.1 µM)

Molecule: CC1(C)CC[C@]2(C(=O)O)CC[C@]3(C)C(=CC[C@@H]4[C@@]5(C)CC[C@H](O)C(C)(C)[C@@H]5CC[C@]43C)[C@@H]2C1 [oleanoic acid]
- IC50 on L. infantum amastigote [1]: 2.91 ± 0.066 µg/mL (≈ 6.37 µM)

Molecule: CC1CCC2(C(=O)O)CCC3(C)C(=CCC4C5(C)CC(O)C(OC(=O)/C=C/c6ccc(O)cc6)C(C)(C)C5CCC43C)C2C1C (stereo not drawn) [Jacoumaric acid (2), Jacoumaric acid]
- IC50 [2]: > 50 µg/mL
- Axenic Amastigotes IC50 [3]: 1.32 ± 0.59 µg/mL
- IC50 [3]: 1.32 ± 0.59 µg/mL (≈ 2.13 µM)
- IC90 [3]: 1.9 µg/mL (≈ 3.07 µM)
- IC50 when associated with mannitol, compared with IC50 alone [3]: no significant differences
- CC50 at 72 h [5]: 12.9 ± 2.5 µg/mL (≈ 20.8 µM)
- Production of ROS (H2DCFDA fluorescence) compared to the control [6]: significantly decreased

Molecule: C=C1CC/C=C(\C)CC[C@@H]2[C@@H]1CC2(C)C [E-caryophyllene]
- IC50, antileishmanial [9]: 10.7 ± 0.6 µg/mL (≈ 52.4 µM)

Molecule: spergulin-A
- IC50, antileishmanial [10]: 6.22 µg/mL

Molecule: COc1cccc2c1C(=O)c1c(O)c3c(c(O)c1C2=O)C[C@@](O)(C(=O)CO)C[C@@H]3O[C@H]1C[C@H](N)[C@H](O)[C@H](C)O1 [Doxorubicin, reference compound]
- CC50 at 72 h [5]: 0.04 ± 0.004 µg/mL (≈ 0.0736 µM)
